Patent publication US9328106B2, “Cyclic ether pyrazol-4-yl-heterocyclyl-carboxamide compounds and methods of use” (Genentech, Inc., priority 2012, dated 2016)

biological target: PIM1 (Homo sapiens (Human), UniProt P11309); experiment: biochemical; format: biochemical; settings: not given
Sequence (P11309 whole entry): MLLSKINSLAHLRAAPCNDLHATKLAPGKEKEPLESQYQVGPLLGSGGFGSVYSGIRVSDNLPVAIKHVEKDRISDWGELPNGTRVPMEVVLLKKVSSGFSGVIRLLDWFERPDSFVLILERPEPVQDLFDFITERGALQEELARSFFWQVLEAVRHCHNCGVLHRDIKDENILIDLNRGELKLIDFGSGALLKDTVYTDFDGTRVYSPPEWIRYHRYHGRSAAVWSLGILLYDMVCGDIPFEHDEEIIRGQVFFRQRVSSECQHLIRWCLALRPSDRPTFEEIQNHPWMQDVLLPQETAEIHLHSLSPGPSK

Row | Structure (SMILES) | Ki
1 | [2H]C([2H])([2H])O[C@H]1CO[C@@H](c2c(NC(=O)c3nc(-c4c(F)cccc4F)sc3N)cnn2C)CC[C@@H]1N [Example 180, 5-Amino-N-[5-[(2R,5S,6R)-5-amino-6-(trideuteriomethoxy)oxepan-2-yl]-1-methyl-pyrazol-4-yl]-2-(2,6-difluorophenyl)thiazole-4-carboxamide] | 0.017 nM

same assay, conditions: 20 pM PIM1, 1 μM FAM-peptide, 10 μM ATP, 90 minutes at room temperature; read-out: PIM1 LC3K (KI)

Row | Structure (SMILES) | Ki
2 | COc1ccc(-c2nc(C(=O)Nc3cnn(C)c3[C@@H]3CC[C@@H](N)[C@H](F)CO3)cs2)c(F)c1 [Example 293, N-(5-((2S,5R,6S)-5-amino-6-fluorooxepan-2-yl)-1-methyl-1H-pyrazol-4-yl)-2-(2-fluoro-4-methoxyphenyl)thiazole-4-carboxamide] | 0.059 nM
3 | Cn1ncc(NC(=O)c2csc(-c3c(F)cc(C4(O)CCOC4)cc3F)n2)c1[C@@H]1CC[C@@H](N)[C@H](F)CO1 (stereo partly drawn) [Example 215, N-(5-((2S,5R,6S)-5-amino-6-fluorooxepan-2-yl)-1-methyl-1H-pyrazol-4-yl)-2-(2,6-difluoro-4-(3-hydroxytetrahydrofuran-3-yl)phenyl)thiazole-4-carboxamide] | 0.00762 nM
4 | CO[C@H]1CO[C@H](c2c(NC(=O)c3nc(-c4c(F)cccc4C(F)(F)F)sc3N)cnn2C)CC[C@H]1N [Example 279, 5-amino-N-(5-((2S,5R,6R)-5-amino-6-methoxyoxepan-2-yl)-1-methyl-1H-pyrazol-4-yl)-2-(2-fluoro-6-(trifluoromethyl)phenyl)thiazole-4-carboxamide] | 0.083 nM
5 | Cn1ncc(NC(=O)c2ccc(F)c(-c3c(F)cc(OCCO)cc3F)n2)c1[C@@H]1CC[C@@H](N)[C@H](F)CO1 [Example 209, N-(5-((2S,5R,6S)-5-Amino-6-fluorooxepan-2-yl)-1-methyl-1H-pyrazol-4-yl)-6-(2,6-difluoro-4-(2-hydroxyethoxy)phenyl)-5-fluoropicolinamide] | 0.016 nM
6 | CO[C@H]1CO[C@H](c2c(NC(=O)c3nc(-c4c(F)ccc(F)c4F)sc3N)cnn2C)CC[C@H]1N [Example 262, 5-amino-N-(5-((2S,5R,6R)-5-amino-6-methoxyoxepan-2-yl)-1-methyl-1H-pyrazol-4-yl)-2-(2,3,6-trifluorophenyl)thiazole-4-carboxamide] | 0.01 nM
7 | Cn1ncc(NC(=O)c2csc(-c3cccc4c3cnn4C)n2)c1[C@@H]1CC[C@@H](N)[C@H](F)CO1 [Example 402, N-[5-[(2S,5R,6S)-5-amino-6-fluoro-oxepan-2-yl]-1-methyl-pyrazol-4-yl]-2-(1-methylindazol-4-yl)thiazole-4-carboxamide] | 0.117 nM
8 | Cn1ncc(NC(=O)c2csc(-c3c(F)ccc(F)c3F)n2)c1[C@@H]1CC[C@@H](N)[C@H](F)CO1 [Example 243, N-(5-((2S,5R,6S)-5-amino-6-fluorooxepan-2-yl)-1-methyl-1H-pyrazol-4-yl)-2-(2,3,6-trifluorophenyl)thiazole-4-carboxamide] | 0.047 nM
9 | Cn1ncc(NC(=O)c2nc(-c3c(F)cccc3F)sc2N)c1[C@H]1C[C@@H](O)CCO1 [Example 149, 5-amino-2-(2,6-difluorophenyl)-N-(5-((2R,4S)-4-hydroxytetrahydro-2H-pyran-2-yl)-1-methyl-1H-pyrazol-4-yl)thiazole-4-carboxamide] | 0.174 nM
10 | Cn1ncc(NC(=O)c2csc(-c3c(F)cccc3Cl)n2)c1[C@@H]1CC[C@@H](N)[C@H](F)CO1 [Example 284, N-(5-((2S,5R,6S)-5-amino-6-fluorooxepan-2-yl)-1-methyl-1H-pyrazol-4-yl)-2-(2-chloro-6-fluorophenyl)thiazole-4-carboxamide] | 0.22 nM
11 | Cn1ncc(NC(=O)c2csc(-c3ncccc3F)n2)c1[C@@H]1CC[C@@H](N)[C@H](F)CO1 [Example 237, N-(5-((2S,5R,6S)-5-amino-6-fluorooxepan-2-yl)-1-methyl-1H-pyrazol-4-yl)-2-(3-fluoropyridin-2-yl)thiazole-4-carboxamide] | 0.107 nM
12 | Cn1ncc(NC(=O)c2nc(-c3c(F)cccc3F)sc2N)c1[C@H]1CC[C@H](N)[C@@H](F)CO1 [Example 176, 5-Amino-N-[5-[(2R,5S,6R)-5-amino-6-fluoro-oxepan-2-yl]-1-methyl-pyrazol-4-yl]-2-(2,6-difluorophenyl)thiazole-4-carboxamide] | 0.595 nM
13 | Cn1ncc(NC(=O)c2nc(-c3c(F)cccc3C(F)(F)F)sc2N)c1[C@@H]1CC[C@@H](N)[C@H](F)CO1 [Example 331, 5-amino-N-(5-((2S,5R,6S)-5-amino-6-fluorooxepan-2-yl)-1-methyl-1H-pyrazol-4-yl)-2-(2-fluoro-6-(trifluoromethyl)phenyl)thiazole-4-carboxamide] | 0.104 nM
14 | COC(c1cc(F)c(-c2nc(C(=O)Nc3cnn(C)c3[C@@H]3CC[C@@H](N)[C@H](F)CO3)cs2)c(F)c1)C1CC1 (stereo partly drawn) [Example 276, N-(5-((2S,5R,6S)-5-amino-6-fluorooxepan-2-yl)-1-methyl-1H-pyrazol-4-yl)-2-(4-(cyclopropyl(methoxy)methyl)-2,6-difluorophenyl)thiazole-4-carboxamide] | 0.084 nM
15 | Cn1ncc(NC(=O)c2csc(-c3cc(Br)ccc3F)n2)c1[C@@H]1CC[C@@H](N)[C@H](F)CO1 [Example 299, N-(5-((2S,5R,6S)-5-amino-6-fluorooxepan-2-yl)-1-methyl-1H-pyrazol-4-yl)-2-(5-bromo-2-fluorophenyl)thiazole-4-carboxamide] | 0.023 nM
16 | Cn1ncc(NC(=O)c2csc(-c3c(F)cccc3F)n2)c1[C@@H]1CC[C@@H](N)[C@@H](O)CO1 [Example 350, N-(5-((2S,5R,6R)-5-amino-6-hydroxyoxepan-2-yl)-1-methyl-1H-pyrazol-4-yl)-2-(2,6-difluorophenyl)thiazole-4-carboxamide] | > 667 nM
17 | Cc1ccc(F)c(-c2nc(C(=O)Nc3cnn(C)c3[C@@H]3CC[C@@H](N)[C@H](F)CO3)cs2)c1F [Example 303, N-(5-((2S,5R,6S)-5-amino-6-fluorooxepan-2-yl)-1-methyl-1H-pyrazol-4-yl)-2-(2,6-difluoro-3-methylphenyl)thiazole-4-carboxamide] | 0.013 nM
18 | C[C@@H]1CC(N)CC[C@H](c2c(NC(=O)c3nc(-c4c(F)cccc4F)sc3N)cnn2C)O1 (stereo partly drawn) [Example 113, 5-amino-N-(5-((2R,7R)-5-amino-7-methyloxepan-2-yl)-1-methyl-1H-pyrazol-4-yl)-2-(2,6-difluorophenyl)thiazole-4-carboxamide] | 0.019 nM
19 | Cn1ncc(NC(=O)c2csc(-c3c(F)cccc3CO)n2)c1[C@@H]1CC[C@@H](N)[C@H](F)CO1 [Example 382, N-[5-[(2S,5R,6S)-5-amino-6-fluoro-oxepan-2-yl]-1-methyl-pyrazol-4-yl]-2-[2-fluoro-6-(hydroxymethyl)phenyl]thiazole-4-carboxamide] | 7.2 nM
20 | Cc1c(-c2nc(C(=O)Nc3cnn(C)c3[C@@H]3CC[C@@H](N)[C@H](F)CO3)c(N)s2)cnn1C [Example 257, 5-amino-N-(5-((2S,5R,6S)-5-amino-6-fluorooxepan-2-yl)-1-methyl-1H-pyrazol-4-yl)-2-(1,5-dimethyl-1H-pyrazol-4-yl)thiazole-4-carboxamide] | 0.025 nM
21 | Cn1ncc(NC(=O)c2csc(-c3c(F)cc(O[C@@H]4CCOC4)cc3F)n2)c1[C@@H]1CC[C@@H](N)[C@H](F)CO1 [Example 217] | 0.003 nM
22 | Cn1ncc(NC(=O)c2ccc(F)c(-c3cccc(F)c3Cl)n2)c1[C@@H]1CC[C@@H](N)[C@H](F)CO1 [Example 227, N-(5-((2S,5R,6S)-5-amino-6-fluorooxepan-2-yl)-1-methyl-1H-pyrazol-4-yl)-6-(2-chloro-3-fluorophenyl)-5-fluoropicolinamide] | 0.57 nM
